Experimental data taken from publication PMC12079500, “An Intracellular Peptide Library Screening Platform Identifies Irreversible Covalent Transcription Factor Inhibitors” (Advanced Science, 2025).
Values joined by “and” are separate entries in the source; they are usually repeats but may differ in a detail not shown here. Equal entries are not always repeated. Where two headings read alike, the source gives them in different places. Where a SMILES comes first, the peptide text is derived from it. Bridges are numbered along the chain shown (N, C = ends). The star is where a group is joined. 5FAM = O=C1OC2(c3ccc(O)cc3Oc3cc(O)ccc32)c2ccc(C(=O)*)cc21

How the values were obtained:
[1] = biological target: T1, cJun/TRE DNA (Homo sapiens, UniProt P05412); test: CD cJun/TRE DNA antagonism assay (TRE DNA signal at 281 nm); assay type: biochemical; settings: for cJun-TRE DNA IC50, fold improved (oxidised vs reduced): ratio of IC50 reduced / oxidised; for IC50: pH 7.4, 30 min equilibration, triplicate data, Hill fit, error one SD
T1 construct: LC-MS analysis of the cJun bZIP domain; made in house
Description: CD antagonism experiments were next carried out, as previously described,^[ [13], [18] ^] whereby the structure of a TRE DNA duplex was monitored by following a peak at 281 nm, which shifts upon binding to cJun. The introduction of antagonist to the sample causes the peak to shift back to its unbound signal in a dose‐dependent manner as the cJun is sequestered, leaving unbound DNA in its original structure (Figure S9, Supporting Information). As there is no protein absorbance in this region of the CD spectrum, this measures DNA structure only and produces a simple readout of the proportion of free/cJun‐bound DNA at different antagonist concentrations. By fitting these plots to a Hill equation (OriginPro), IC50 values for HW1, HW29, and HW31 were determined in both reducing and oxidizing conditions (Table S1, Supporting Information; Figure 3C).
(§1) Circular dichroism (CD): An Applied Photophysics Chirascan was used for CD measurements, with a 200 µL sample in a 1 mm path length CD cell. Protein/DNA samples were suspended in 20 mM potassium phosphate,150 mM potassium fluoride at pH 7.4 with or without 5 mM TCEP. cJun was added to TRE DNA (5’-[…], Merck) before addition of antagonist peptide and these samples were equilibrated for 30 minutes before measurement.^[13] For full spectra, three scans between 190 and 260 nm (265-320 nm for DNA binding experiments) were collected with a bandwidth of 1 nm and data sampled at a rate of 0.5 s^-1. These scans were averaged and converted to molar residue ellipticities (MRE). Thermal denaturation experiments were performed by measuring the ellipticity at 222 nm over a 1 to 95°C gradient at 1°C increments. Post-melt scans at 20°C confirmed the transitions were reversible as they overlaid within 5% of the pre-melt scan. The resulting thermal denaturation curves were converted to MRE and fitted to a two-state model, derived via modification of the Gibbs–Helmholtz equation to determine the melting temperature (Tm) ^[26].

[2] = biological target: cJun; settings: cited from earlier work
Description: We previously developed cJun peptide antagonists using a Transcription Block Survival (TBS) assay (Figure 1B).^[ [13] ^] This intracellular peptide library screening platform moves beyond conventional peptide screening systems by selecting peptides based on their ability to not only bind to the target but to meet the more demanding task of functionally antagonizing it by i) binding and, more importantly, ii) blocking its ability to form protein‐DNA interactions.

[3] = biological target: T2, cJun (Homo sapiens, UniProt P05412); test: CD thermal denaturation of antagonist-cJun heterodimer; assay type: binding; design: LC-MS analysis of the cJun bZIP domain; made in house; settings: for Antagonist-cJun heterodimer Tm, reduced / Antagonist-cJun heterodimer Tm, oxidised: CD at 222 nm, 1-95 °C, 20 mM potassium phosphate, 150 mM KF; for Antagonist-cJun heterodimer Tm, reduced: pH 7.4, with 5 mM TCEP (reducing); for Antagonist-cJun heterodimer Tm, oxidised: pH 7.4, without TCEP (oxidising), HW31 50 µM + cJun 50 µM; for Antagonist-cJun heterodimer Tm, Δox-red: difference of Tm in oxidising and reducing buffer
Experimental: as §1

[4] = system: SK-MEL-28 cells; test: Cell imaging of FAM-peptide uptake; assay type: cell-based, human; settings: SK-MEL-28, 10 and 30 µM, 6 h, 37 °C, fixed, DAPI counterstain, fluorescence microscopy
Experimental: Cell imaging: Cells were seeded at 40,000 cells per well in a […] and incubated for 24 hours before treatment with vehicle (1% DMSO in water) or peptide for 6 hours. The media was removed and the cells were washed 3x with PBS. 1 mL of paraformaldehyde (80 mg/mL in PBS) was added and incubated at room temperature for 10 minutes. The paraformaldehyde was removed and fixed cells were washed with 3x PBS. 500 µL of DAPI (1 µg/mL) was then added and incubated at room temperature for 5 minutes following by a 3x PBS wash. Cells were imaged using an Evos FL digital inverted fluorescence microscope using brightfield and both GFP (for the FAM label) and DAPI fluorescence filters.

[5] = biological target: T2, cJun; test: CD spectra (helicity) of HW31-cJun mixture; assay type: binding; design: LC-MS analysis of the cJun bZIP domain; made in house; settings: oxidised vs reduced buffer
Experimental: as §1

[6] = biological target: T2, cJun; test: ESI-MS of HW31 + cJun mixture; assay type: binding; design: LC-MS analysis of the cJun bZIP domain; made in house; settings: HW31 50 µM + cJun 50 µM, oxidising conditions; reduced back by TCEP
Experimental: A mixture of HW31 (50 µM) and cJun (50 µM, Figure S4, Supporting Information) was first shown to form a disulphide‐bridged complex by ESI‐MS, which could be reduced back to the separate species by the addition of TCEP (Figure S5, Supporting Information). Further, an Alphafold 3 prediction of HW31 (prediction without lactam bridge) bound to cJun indicates the complex forms the predicted coiled coil interaction with the formation of a disulphide between cJun C269 and HW31 C2 (Figure 3A; Figure S6, Supporting Information).^[ [17] ^] The interaction was next characterized using circular dichroism (CD) experiments in both oxidizing and reducing conditions. The mixing of HW31 and cJun in both conditions provided a clear increase in helicity, indicative of a binding interaction (Figure S7, Supporting Information). The measured HW31‐cJun heterodimer complex was ≈10% more helical in the oxidized buffer relative to the reduced. […] Analytical size exclusion chromatography further validated HW31/cJun binding and confirmed the formation of a 1:1 stoichiometric complex (Figure S8, Supporting Information).

[7] = oxidising buffer (no TCEP), read-out: cJun-TRE DNA IC50, oxidised
[8] = reducing buffer (5 mM TCEP), read-out: cJun-TRE DNA IC50, reduced

T1 sequence (P05412 252-315 limits assumed): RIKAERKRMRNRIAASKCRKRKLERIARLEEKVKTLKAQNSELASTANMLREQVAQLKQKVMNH
T2 sequence (P05412 252-315 limits assumed): as above

Molecule | cJun-TRE DNA IC50, fold improved (oxidised vs reduced) [1] | Kd ([2]; read-out: Previously determined affinity for cJun) [µM] | Antagonist-cJun heterodimer Tm, reduced [3] | Antagonist-cJun heterodimer Tm, oxidised [3] | Antagonist-cJun heterodimer Tm, Δox-red [3] | Cellular uptake (FAM fluorescence within cells) [4] | IC50 [1, 7] [µM] | IC50 [1, 8] [µM] | Kd ([2]; read-out: Affinity for cJun) [µM] | Increase in helicity of the HW31-cJun heterodimer complex in oxidized buffer relative to reduced [5] | Disulphide formation with cJun [6]
CC[C@H](C)[C@H](NC(=O)[C@H](CCC(=O)O)NC(=O)[C@H](CCCCN)NC(=O)[C@H](CCCNC(=N)N)NC(=O)[C@H](CC(C)C)NC(=O)[C@H](C)NC(=O)[C@H](Cc1ccc(O)cc1)NC(=O)[C@H](CC(N)=O)NC(=O)[C@H](CCCNC(=N)N)NC(=O)[C@H](CCC(=O)O)NC(=O)[C@H](CCC(=O)O)NC(=O)[C@H](CC(C)C)NC(=O)[C@H](CCC(N)=O)NC(=O)[C@H](CCC(=O)O)NC(=O)[C@@H](NC(=O)[C@H](CCC(=O)O)NC(=O)[C@H](CCC(=O)O)NC(=O)[C@H](CCC(=O)O)NC(=O)[C@H](CC(C)C)NC(=O)[C@@H](NC(=O)[C@H](CC(=O)O)NC(=O)[C@H](CCC(=O)O)NC(=O)[C@H](CCC(=O)O)NC(=O)[C@@H](NC(=O)[C@@H](NC(=O)[C@H](CC(C)C)NC(=O)[C@H](CCC(=O)O)NC(=O)[C@H](CCC(=O)O)NC(=O)[C@H](C)NC(=O)[C@H](CCC(=O)O)NC(C)=O)C(C)C)C(C)C)C(C)C)[C@@H](C)CC)C(=O)N[C@H]1CCCCNC(=O)C[C@@H](C(=O)N[C@@H](CCC(N)=O)C(N)=O)NC(=O)[C@H](CCC(N)=O)NC(=O)[C@H](CC(C)C)NC(=O)[C@H](CC(=O)O)NC1=O [HW29, reference compound] (Ac-EAEELVVEEDVLEEEIEQLEERNYALRKEIKDLQDQ-NH2; lactam 31-35) | 1 | 0.087 ± 0.017 | 68 °C | 66 °C | -2 °C |  |  |  |  |  | 
CC(C)[C@H](NC(=O)[C@H](CCCCN)NC(=O)[C@H](CCCNC(=N)N)NC(=O)[C@H](CCCCN)NC(=O)[C@H](CCCCN)NC(=O)[C@H](CCCCN)NC(=O)[C@@H]1CCCN1C(=O)c1ccc2c(c1)C(=O)OC21c2ccc(O)cc2Oc2cc(O)ccc21)C(=O)N[C@@H](Cc1ccc(O)cc1)C(=O)NCC(=O)N[C@@H](CCCNC(=N)N)C(=O)N[C@@H](CCCCN)C(=O)N[C@@H](CCCCN)C(=O)N[C@@H](CCCNC(=N)N)C(=O)N[C@@H](CCCNC(=N)N)C(=O)N[C@@H](CCC(N)=O)C(=O)N[C@@H](CCCNC(=N)N)C(=O)N[C@@H](CCCNC(=N)N)C(=O)N[C@@H](CCCNC(=N)N)C(N)=O [FAM-NLSTAT, reference compound] (5FAM-PKKKRKVYGRKKRRQRRR-NH2) |  |  |  |  |  | FAM fluorescence was observed within the cells |  |  |  |  | 
Ac-LEQRAEELARENEELEKEAEELVVEEDVLEEEIEQLEERNYALRKEIEDLQKQLEKL-NH2 [HW1, reference compound] | 1 |  | 73 °C | 70 °C | -3 °C |  | 11.8 ± 0.3 | 13.8 ± 0.3 | 0.00021 |  | 
CC[C@H](C)[C@H](NC(=O)[C@H](CCC(=O)O)NC(=O)[C@H](CCCCN)NC(=O)[C@H](CCCNC(=N)N)NC(=O)[C@H](CC(C)C)NC(=O)[C@H](C)NC(=O)[C@H](Cc1ccc(O)cc1)NC(=O)[C@H](CC(N)=O)NC(=O)[C@H](CCCNC(=N)N)NC(=O)[C@H](CCC(=O)O)NC(=O)[C@H](CCC(=O)O)NC(=O)[C@H](CC(C)C)NC(=O)[C@H](CCC(N)=O)NC(=O)[C@H](CCC(=O)O)NC(=O)[C@@H](NC(=O)[C@H](CCC(=O)O)NC(=O)[C@H](CCC(=O)O)NC(=O)[C@H](CCC(=O)O)NC(=O)[C@H](CC(C)C)NC(=O)[C@@H](NC(=O)[C@H](CC(=O)O)NC(=O)[C@H](CCC(=O)O)NC(=O)[C@H](CCC(=O)O)NC(=O)[C@@H](NC(=O)[C@@H](NC(=O)[C@H](CC(C)C)NC(=O)[C@H](CCC(=O)O)NC(=O)[C@H](CCC(=O)O)NC(=O)[C@H](CS)NC(=O)[C@H](CCC(=O)O)NC(C)=O)C(C)C)C(C)C)C(C)C)[C@@H](C)CC)C(=O)N[C@H]1CCCCNC(=O)C[C@@H](C(=O)N[C@@H](CCC(N)=O)C(N)=O)NC(=O)[C@H](CCC(N)=O)NC(=O)[C@H](CC(C)C)NC(=O)[C@H](CC(=O)O)NC1=O [HW31] (Ac-ECEELVVEEDVLEEEIEQLEERNYALRKEIKDLQDQ-NH2; lactam 31-35) | 4 |  | 66.6 °C and 67 °C | 81.2 °C and 81 °C | 14.6 °C and 14 °C |  | 12.1 ± 0.3 | 48.3 ± 1.8 |  | ≈ 10% | covalent attachment via a disulphide
